{"source": "paper PMC8206213", "about": "“An L-2-hydroxyglutarate biosensor based on specific transcriptional regulator LhgR” (Nature Communications, 2021)", "key": {"LhgR": {"system": "LhgR", "test": "EMSA, effect of compounds on LhgR binding to the lhgO promoter region F1", "parameters": "species or system Pseudomonas putida W619", "details": "50 mM compound, 10 nM F1, 60 nM LhgR", "description": "Electrophoretic mobility shift assays (EMSAs) were carried out using the DNA fragment (F1 or F2) and purified LhgR. The DNA fragments were first amplified by primer pairs F1-F/F1-R and F2-F/F2-R, respectively. Then, either fragment at a concentration of 10 nM DNA was incubated with LhgR (0–160 nM) in 20 μL EMSA binding buffer (10 mM Tris-HCl [pH 7.4], 50 mM KCl, 0.5 mM EDTA, 10% [vol/vol] glycerol, and 1 mM dithiothreitol [DTT]). The binding reactions were carried out at 30 °C for 30 min. Electrophoresis was performed on 6% native polyacrylamide gels at 4 °C and 170 V (constant voltage) for about 45 min, followed by staining with SYBR green I (TaKaRa, China) and photographing. Analysis of the interaction between lhgO promoter region (F1) and LHGFR was performed using the same procedure.\nTo characterize the effector of LhgR, purified LhgR was first incubated with L-lysine, 5-aminovalerate, glutarate, L-2-HG, D-2-HG, 2-KG, or succinate at 30 °C for 15 min, followed by incubation with the added DNA fragments at 30 °C for 30 min. The mixtures were subsequently subjected to electrophoresis."}, "LHGFR0N3C [1]": {"system": "LHGFR0N3C", "test": "Specificity of purified LHGFR0N3C, emission ratio with 240 μM compounds", "format": "binding, Pseudomonas putida W619", "details": "240 μM compound"}, "LHGFR0N7C [2]": {"system": "LHGFR0N7C", "test": "Specificity of purified LHGFR0N7C, emission ratio with 240 μM compounds", "format": "binding, Pseudomonas putida W619", "details": "240 μM compound"}, "LHGFR0N3C [3]": {"system": "LHGFR0N3C", "test": "Influence of other compounds on the response of purified LHGFR0N3C to L-2-HG", "format": "binding, Pseudomonas putida W619", "details": "Suppl. Fig. 9a; L-2-HG alone or with the compound; three replicates", "outline": "(§1)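 Purified L-2-HG biosensors were mixed 3:1 with test compounds in 50 mM Tris-HCl pH 7.4, excited at 430 nm, and the 528 nm (Venus)/485 nm (mTFP) emission was read. Responses were fitted with a Hill model giving apparent Kd and Hill slope.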"}, "LHGFR0N7C [4]": {"system": "LHGFR0N7C", "test": "Influence of other compounds on the response of purified LHGFR0N7C to L-2-HG", "format": "binding, Pseudomonas putida W619", "details": "Suppl. Fig. 9b; L-2-HG alone or with the compound; three replicates", "outline": "as §1"}, "[5]": {"system": "LHGFR0N7C expressed in E. coli BL21(DE3)", "test": "Specificity of LHGFR0N7C expressed in E. coli BL21(DE3), 1 mM compounds", "format": "cell-based", "details": "Supplementary Fig. 13c", "description": "(§2) To characterize the sensitivity and specificity of LHGFR expressed in E. coli BL21(DE3), 90 μL cell suspensions following 8 h carbon starvation were mixed with 10 μL increasing concentrations of L-2-HG or other compounds, and then added into a black 96-well plate (total 100 μL/per well), the fluorescence intensities were determined using an EnSight microplate reader (PerkinElmer, USA) and the following instrument settings: excitation at 430 nm, emission at 485 nm (mTFP) and 528 nm (Venus), time intervals of 5 min, the temperature at 37 °C, and shake at 180 rpm."}, "[6]": {"system": "LHGFR3N7C expressed in E. coli BL21(DE3)", "test": "Control biosensor LHGFR3N7C expressed in E. coli, response to added compounds", "format": "cell-based", "details": "Supplementary Fig. 14a", "description": "as §2"}, "[7]": {"system": "LHGFR0N3C expressed in HEK293FT cells", "test": "Specificity of LHGFR0N3C expressed in permeabilized HEK293FT cells, 1 mM compounds", "format": "cell-based, human (HEK293FT cells)", "details": "1 mM compound, cells permeabilized with 10 μM digitonin, normalized to control", "description": "(§3) To characterize the sensitivity and specificity of LHGFR expressed in HEK293FT cells, cells were trypsinized 48 h following transfection and suspended in 1× Hank’s balanced salt solution supplemented with 20 mM HEPES. […] Digitonin at a concentration of 10 μM was used to induce cell permeabilization and deplete intracellular L-2-HG for in vivo response curves construction. Then, the fluorescence intensities were determined by a SpectraMax i3 fluorescence plate reader (Molecular Devices, USA) with excitation at 430 nm and emission at 485 nm (mTFP) and 528 nm (Venus). Basal L-2-HG concentration in HEK293FT cells under physiological conditions was determined by substituting the emission ratios of non-permeabilized HEK293FT cells into the calibrated in vivo response curves."}, "[8]": {"system": "LHGFR0N7C expressed in HEK293FT cells", "test": "Specificity of LHGFR0N7C expressed in permeabilized HEK293FT cells, 1 mM compounds", "format": "cell-based, human (HEK293FT cells)", "details": "Supplementary Fig. 17d; Control about 1", "description": "as §3"}}, "note": "“And” between values parts separate entries of the source, which are not always exact repeats. Identical values can stand only once.", "data": [{"smiles": "O=C(O)CCCC(=O)O", "note": "[Glutarate, glutarate]", "values": [{"measurement": "Effect on LhgR binding to the lhgO promoter region F1", "setting": "LhgR", "value": "observed only in the presence of L-2-HG"}, {"measurement": "Emission ratio", "setting": "LHGFR0N3C [1]", "value": "1.395 and 1.399 and 1.404"}, {"measurement": "Induction of emission ratio changes", "setting": "LHGFR0N3C [1]", "value": "None"}, {"measurement": "Emission ratio", "setting": "LHGFR0N7C [2]", "value": "1.71 (2×) and 1.717"}, {"measurement": "Induction of emission ratio changes", "setting": "LHGFR0N7C [2]", "value": "None"}, {"measurement": "Emission ratio", "setting": "LHGFR0N3C [3]", "value": "2.055 and 2.045 and 2.058"}, {"measurement": "Emission ratio", "setting": "LHGFR0N7C [4]", "value": "2.576 and 2.574 and 2.627"}, {"measurement": "normalized emission ratio of biosensor expressed in E. coli", "setting": "[5]; time 0 min", "value": "1.0192 and 1.012 and 1.0143"}, {"measurement": "normalized emission ratio of biosensor expressed in E. coli", "setting": "[5]; time 5 min", "value": "1.029 and 1.007 and 0.9939"}, {"measurement": "normalized emission ratio of biosensor expressed in E. coli", "setting": "[5]; time 10 min", "value": "1.033 and 1.008 (2×)"}, {"measurement": "normalized emission ratio of biosensor expressed in E. coli", "setting": "[5]; time 15 min", "value": "1.028 and 1.024 and 1.005"}, {"measurement": "normalized emission ratio of biosensor expressed in E. coli", "setting": "[5]; time 20 min", "value": "1.023 and 1.015 and 1.006"}, {"measurement": "normalized emission ratio of biosensor expressed in E. coli", "setting": "[5]; time 25 min", "value": "1.0228 and 1.021 and 1.005"}, {"measurement": "normalized emission ratio of biosensor expressed in E. coli", "setting": "[5]; time 30 min", "value": "1.026 and 1.014 and 1.016"}, {"measurement": "normalized emission ratio of biosensor expressed in E. coli", "setting": "[5]; time 35 min", "value": "1.019 and 1.016 (2×)"}, {"measurement": "normalized emission ratio of biosensor expressed in E. coli", "setting": "[5]; time 40 min", "value": "1.0289 and 1.022 and 1.012"}, {"measurement": "normalized emission ratio of biosensor expressed in E. coli", "setting": "[5]; time 45 min", "value": "1.023 and 1.017 and 1.024"}, {"measurement": "normalized emission ratio of biosensor expressed in E. coli", "setting": "[5]; time 50 min", "value": "1.027 and 1.014 and 1.019"}, {"measurement": "normalized emission ratio of biosensor expressed in E. coli", "setting": "[5]; time 55 min", "value": "1.028 and 1.018 and 1.023"}, {"measurement": "normalized emission ratio of biosensor expressed in E. coli", "setting": "[5]; time 60 min", "value": "1.03 and 1.018 and 1.0254"}, {"measurement": "normalized emission ratio of biosensor expressed in E. coli", "setting": "[5]; time 65 min", "value": "1.027 and 1.013 and 1.037"}, {"measurement": "normalized emission ratio of biosensor expressed in E. coli", "setting": "[5]; time 70 min", "value": "1.027 and 1.018 and 1.0281"}, {"measurement": "normalized emission ratio of biosensor expressed in E. coli", "setting": "[5]; time 75 min", "value": "1.034 and 1.022 and 1.035"}, {"measurement": "normalized emission ratio of biosensor expressed in E. coli", "setting": "[5]; time 80 min", "value": "1.0287 and 1.026 and 1.039"}, {"measurement": "normalized emission ratio of biosensor expressed in E. coli", "setting": "[5]; time 85 min", "value": "1.03 and 1.021 and 1.038"}, {"measurement": "normalized emission ratio of biosensor expressed in E. coli", "setting": "[5]; time 90 min", "value": "1.036 and 1.0239 and 1.043"}, {"measurement": "normalized emission ratio of control biosensor expressed in E. coli", "setting": "[6]; time 0 min", "value": "1.008 and 0.9954 and 0.9826 and 0.9922"}, {"measurement": "normalized emission ratio of control biosensor expressed in E. coli", "setting": "[6]; time 5 min", "value": "1.009 and 0.9959 and 0.9842 and 0.997"}, {"measurement": "normalized emission ratio of control biosensor expressed in E. coli", "setting": "[6]; time 10 min", "value": "1.009 and 0.9912 and 0.9859 and 0.9988"}, {"measurement": "normalized emission ratio of control biosensor expressed in E. coli", "setting": "[6]; time 15 min", "value": "1.011 and 0.9845 and 0.9854 and 0.993"}, {"measurement": "normalized emission ratio of control biosensor expressed in E. coli", "setting": "[6]; time 20 min", "value": "1.001 (2×) and 0.9957 and 0.9921"}, {"measurement": "normalized emission ratio of control biosensor expressed in E. coli", "setting": "[6]; time 25 min", "value": "1.004 and 0.9829 and 0.99 and 1.01"}, {"measurement": "normalized emission ratio of control biosensor expressed in E. coli", "setting": "[6]; time 30 min", "value": "1.003 and 0.9825 and 0.992 and 1.008"}, {"measurement": "normalized emission ratio of control biosensor expressed in E. coli", "setting": "[6]; time 35 min", "value": "1.004 (2×) and 0.9933 and 1.0123"}, {"measurement": "normalized emission ratio of control biosensor expressed in E. coli", "setting": "[6]; time 40 min", "value": "1.001 and 1.002 and 0.9991 and 1.015"}, {"measurement": "normalized emission ratio of control biosensor expressed in E. coli", "setting": "[6]; time 45 min", "value": "1.004 and 1.003 and 1.002 and 1.015"}, {"measurement": "normalized emission ratio of control biosensor expressed in E. coli", "setting": "[6]; time 50 min", "value": "1.007 and 1.003 and 0.9994 and 1.015"}, {"measurement": "normalized emission ratio of control biosensor expressed in E. coli", "setting": "[6]; time 55 min", "value": "1.005 and 0.994 and 1.003 and 1.016"}, {"measurement": "normalized emission ratio of control biosensor expressed in E. coli", "setting": "[6]; time 60 min", "value": "1.022 and 0.993 and 1.012 and 1.027"}, {"measurement": "normalized emission ratio of control biosensor expressed in E. coli", "setting": "[6]; time 65 min", "value": "1.018 and 1.003 and 1.0048 and 1.024"}, {"measurement": "normalized emission ratio of control biosensor expressed in E. coli", "setting": "[6]; time 70 min", "value": "1.018 (2×) and 1.011 and 1.029"}, {"measurement": "normalized emission ratio of control biosensor expressed in E. coli", "setting": "[6]; time 75 min", "value": "1.029 and 0.9995 and 1.018 and 1.031"}, {"measurement": "normalized emission ratio of control biosensor expressed in E. coli", "setting": "[6]; time 80 min", "value": "1.036 and 1.008 and 1.027 and 1.028"}, {"measurement": "normalized emission ratio of control biosensor expressed in E. coli", "setting": "[6]; time 85 min", "value": "1.027 and 1.007 and 1.024 and 1.023"}, {"measurement": "normalized emission ratio of control biosensor expressed in E. coli", "setting": "[6]; time 90 min", "value": "1.042 and 1.01 and 1.0199 and 1.034"}, {"measurement": "Normalized emission ratio", "setting": "[7]", "value": "0.9633 and 1.016 and 1.046"}, {"measurement": "Normalized emission ratio", "setting": "[8]", "value": "0.9993 and 0.9933 and 0.9442"}]}]}
